The assay concerns G. duodenalis BRIS/91/HEPU/1279. Put plainly: Primary Giardia screen at 10 µM (live-cell imaging, automated counting). Conditions: for % Inhibition n=1 48h / % Inhibition n=1 24h: first singlicate assay; for % Inhibition n=2 24h / % Inhibition n=2 48h: re-assessment. The class given is cell-based, Giardia duodenalis. The procedure, abridged: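 Compound added to 10 μM final in medium with 0.2% DMSO, one well each; plates then held in sealed chambers at 3% O2, 5% CO2 in N2; growth imaged and counted automatically at 24 and 48 h; values normalised to vehicle wells minus media blank.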

The results in this text go back to paper PMC9775191, “A Subset Screen of the Compounds Australia Scaffold Library Identifies 7-Acylaminodibenzoxazepinones as Potent and Selective Hits for Anti-Giardia Drug Discovery” (Biomedicines, 2022).

With `O=C(NCCSc1ccc(Cl)cc1)c1cc(S(=O)(=O)N2CCOCC2)c[nH]1` [SN00777799], the “% Inhibition n=1 48h” value is given as 7.9%.

Consider `Cc1cccc(OCC(=O)N2CCN(Cc3nnsc3Cl)CC2)c1C` [SN00777844], for which the “% Inhibition n=1 48h” value was determined as 35.2%.

In the case of `CCc1nc(CN2CCCN(C(=O)C3CCC3)CC2)cs1` [SN00777931], the “% Inhibition n=1 48h” value came to 3.9%.

With `Cc1onc(-c2ccccc2)c1-c1nnc(CN2CCCN(CC(=O)NC(C)(C)C)CC2)o1` [SN00777957], the “% Inhibition n=1 48h” value is reported as 2.0%.

Turning to `O=C1C(=O)N(Cc2coc(-c3ccc(Cl)cc3)n2)C(=O)N1Cc1ccccc1` [SN00777999], the “% Inhibition n=1 48h” value was 18.6%.

For `CCN1C(=O)C(=O)N(Cc2coc(-c3ccc(C)cc3)n2)C1=O` [SN00778011], the “% Inhibition n=1 48h” value worked out at 28.7%.

With `CCCNC(=O)CN1CCN(c2nc3ccccn3c2[N+](=O)[O-])CC1` [SN00778045], the “% Inhibition n=1 48h” value is reported as 31.4%.

Consider `Cn1cccc1C1CCCCCN1C(=O)CCSCc1nc2sc3c(c2c(=O)[nH]1)CCC3` (centres unmarked) [SN00778065], for which the “Average % Inhibition 24h” value was determined as 0.2%, the “% Inhibition n=1 24h” value was 0.0%, the “% Inhibition n=2 24h” value came to 0.4% and the “Average % Inhibition 48h” value is 38.7%. The “% Inhibition n=1 48h” value came out at 67.7% and the “% Inhibition n=2 48h” value came out at 9.8%.

Take `Cc1ccc(-c2nnn(CC(=O)N3CCCCCC3c3cccn3C)n2)cc1` (centres unmarked) [SN00778086]: the “Average % Inhibition 24h” value is 2.1%, the “% Inhibition n=1 24h” value turned out to be 0.0%, the “% Inhibition n=2 24h” value is 4.1% and the “Average % Inhibition 48h” value was found to be 28.3%. Further, the “% Inhibition n=1 48h” value was determined as 56.5% and the “% Inhibition n=2 48h” value is on record as 0.0%.

Regarding `CCc1noc(C)c1C(=O)N1CCCN(Cc2csc(C)n2)CC1` [SN00778114], the “% Inhibition n=1 48h” value was 29.4%.

For the compound `Cc1ccc(S(=O)(=O)N2CCCN(C(=O)c3c[nH]nc3-c3ccc(F)cc3)CC2)cc1` [SN00778123], the “% Inhibition n=1 48h” value was found to be 40.4%.

As to `CC(=O)N1CCCN(C(=O)c2cnn(C(C)(C)C)c2C)CC1` [SN00778131], the “% Inhibition n=1 48h” value is 0.0%.

On to `CC(=O)N1CCCN(C(=O)c2cc(C3CC3)[nH]n2)CC1` [SN00778148], for which the “% Inhibition n=1 48h” value came to 1.1%.

On to `CCC1c2ccsc2CCN1C(=O)c1cc(-c2csc(C)n2)c[nH]1` (centres unmarked) [SN00778239], for which the “% Inhibition n=1 48h” value is recorded as 3.8%.

As to `CSc1ccc(-c2csc(CN3CCN(C(C)=O)CC3)n2)cc1` [SN00778360], the “% Inhibition n=1 48h” value came out at 12.1%.

With `O=C(CN1C(=O)NC2(CCc3ccccc32)C1=O)N1CCCC(c2nnc3ccccn23)C1` (centres unmarked) [SN00778393], the “% Inhibition n=1 48h” value was 0.0%.

As for `c1cnc(N2CCCN(c3nc4ccccc4o3)CC2)nc1` [SN00778442], the “% Inhibition n=1 48h” value was determined as 32.5%.

Regarding `Cc1nc(-c2ccccc2)c(C(=O)N2CCCN(S(=O)(=O)c3ccc(F)cc3)CC2)s1` [SN00778504], the “% Inhibition n=1 48h” value was 9.7%.

With `CCn1cc(CN2CCCN(C(=O)c3cc(C4CC4)on3)CC2)cn1` [SN00778709], the “% Inhibition n=1 48h” value stood at 0.0%.

Turning to `Cc1ccc(-c2nc(C)sc2CC(=O)N2CCN(Cc3nc(N)c4ccccc4n3)CC2)cc1` [SN00778718], the “% Inhibition n=1 48h” value is given as 9.0%.

As to `c1ccc(-c2cc(CN3CCOC(Cn4cncn4)C3)on2)cc1` (centres unmarked) [SN00778747], the “% Inhibition n=1 48h” value is 6.8%.

Take `CN(C)C(=O)CN1CCCN(Cc2ncc(C(C)(C)C)o2)CC1` [SN00778763]: the “% Inhibition n=1 48h” value came to 1.9%.

For the compound `Cc1nc(CN2CCCNCC2)oc1C` [SN00778765], the “% Inhibition n=1 48h” value was 0.0%.

On to `Cc1ccc(S(=O)(=O)C2(C(=O)Nc3cn[nH]c3)CCC2)cc1` [SN00778835], for which the “% Inhibition n=1 48h” value is listed as 0.0%.

For the compound `Cc1nn(CCC(=O)Nc2cccc(F)c2)c(=O)c2noc(C)c12` [SN00778869], the “Average % Inhibition 24h” value is recorded as 0.0%, the “% Inhibition n=1 24h” value is given as 0.0%, the “% Inhibition n=2 24h” value was 0.0% and the “Average % Inhibition 48h” value is 40.9%. The “% Inhibition n=1 48h” value worked out at 21.9% and the “% Inhibition n=2 48h” value was 59.9%.

In the case of `CCOC(=O)N1CCN(C(=O)c2nn(-c3ccccc3)c3c2CCC3)CC1` [SN00778954], the “Average % Inhibition 24h” value is 6.2%, the “% Inhibition n=1 24h” value stood at 12.5%, the “% Inhibition n=2 24h” value is recorded as 0.0% and the “Average % Inhibition 48h” value worked out at 36.1%. The “% Inhibition n=1 48h” value stood at 38.8% and the “% Inhibition n=2 48h” value was 33.3%.

Consider `Cc1noc2ncc(C(=O)N3CCN(C(C)C)CC3)cc12` [SN00779057], for which the “% Inhibition n=1 48h” value is given as 0.0%.

For the compound `O=C1CC(C(=O)N2CCN(S(=O)(=O)c3ccc(Br)cc3)CC2)c2ccc(F)cc2N1` (centres unmarked) [SN00779129], the “% Inhibition n=1 48h” value is on record as 0.0%.

`CCCn1c(=O)c2c(nc3n2CCN3c2ccc(CC)cc2)n(C)c1=O` [SN00779194]: the “% Inhibition n=1 48h” value was found to be 0.0%.

Consider `Cn1c(=O)n(CC(=O)C(C)(C)C)c(=O)c2c1nc1oc(C(C)(C)C)cn12` [SN00779257], for which the “% Inhibition n=1 48h” value amounted to 18.6%.

Regarding `Cn1cc(C(=O)N2CCCC2C2CCCCC2)ccc1=O` (centres unmarked) [SN00779264], the “% Inhibition n=1 48h” value is on record as 13.1%.

`O=[N+]([O-])c1ncn(Cc2nc(-c3ccc(C(F)(F)F)cc3)no2)n1` [SN00779286]: the “% Inhibition n=1 48h” value amounted to 16.5%.

On to `O=C(Nc1cccnc1)C1=NN(Cc2ccccc2)C(=O)CC1` [SN00779378], for which the “% Inhibition n=1 48h” value turned out to be 15.0%.

In the case of `CN(C)c1ccc(NC(=O)C2=NN(Cc3ccc(F)cc3)C(=O)CC2)cc1` [SN00779392], the “% Inhibition n=1 48h” value is reported as 8.0%.

In the case of `CSCCC(NS(=O)(=O)c1ccc(C)cc1)C(=O)Nc1nc(C)c(-c2ccccn2)s1` (centres unmarked) [SN00779415], the “% Inhibition n=1 48h” value is recorded as 0.0%.

In the case of `Cc1[nH]c(=O)sc1S(=O)(=O)N1CCN(c2ccccc2[N+](=O)[O-])CC1` [SN00779481], the “% Inhibition n=1 48h” value is reported as 0.0%.

`O=C(Cc1csc(Cc2ccccn2)n1)Nc1ccc2nc(N3CCOCC3)sc2c1` [SN00779496]: the “% Inhibition n=1 48h” value is listed as 2.9%.

Take `CC(NC(=O)Cc1csc(Cc2ccccn2)n1)c1ccc(F)cc1` (centres unmarked) [SN00779507]: the “% Inhibition n=1 48h” value is 0.0%.

Turning to `Cc1c(C(=O)N2CCOCC2C)nnn1-c1cccc2c1CCN(Cc1ccccc1)C2` (centres unmarked) [SN00779590], the “% Inhibition n=1 48h” value is 5.5%.

Consider `CCc1nc(C)c2c(C)c(C(=O)N3CCN(c4ncccn4)CC3)sc2n1` [SN00779630], for which the “% Inhibition n=1 48h” value came out at 22.3%.

Turning to `CCc1nc(C)c2c(C)c(C(=O)N3CCN(Cc4ccc(OC)c(F)c4)CC3)sc2n1` [SN00779632], the “% Inhibition n=1 48h” value worked out at 14.8%.

As for `O=S(=O)(c1ccc(Cl)cc1)N1CCC(c2nc(-c3c(Cl)cccc3Cl)no2)CC1` [SN00779695], the “% Inhibition n=1 48h” value was 11.2%.

`COc1cc(-c2noc(-c3cc(C4CC4)n[nH]3)n2)cc(OC)c1OC` [SN00779739]: the “% Inhibition n=1 48h” value worked out at 13.7%.

As to `O=C(c1ccc2nncn2c1)N1CCc2[nH]nc(C(F)(F)F)c2C1` [SN00779777], the “% Inhibition n=1 48h” value is given as 3.6%.

`CCc1ncncc1C(=O)N1CCN(Cc2nc(C(C)C)no2)CC1` [SN00779817]: the “% Inhibition n=1 48h” value stood at 26.6%.

Consider `CCN(CC)C(=O)C1CSCN1C(=O)c1cc(C)nc2c1nc1n2CCCCC1` (centres unmarked) [SN00779876], for which the “Average % Inhibition 24h” value was 1.0%, the “% Inhibition n=1 24h” value was 1.9%, the “% Inhibition n=2 24h” value was 0.0% and the “Average % Inhibition 48h” value was 31.1%. The “% Inhibition n=1 48h” value is reported as 62.1% and the “% Inhibition n=2 48h” value came out at 0.0%.

`O=c1c2ccsc2ncn1Cc1noc(-c2ccsc2)n1` [SN00779979]: the “% Inhibition n=1 48h” value came to 0.0%.

Turning to `Cc1ccc(C)c(NC(=O)Cc2nc(Cn3cnc([N+](=O)[O-])c3)cs2)c1` [SN00779996], the “Average % Inhibition 24h” value came to 8.5%, the “% Inhibition n=1 24h” value came to 0.0%, the “% Inhibition n=2 24h” value came out at 16.9% and the “Average % Inhibition 48h” value is 59.9%. Besides, the “% Inhibition n=1 48h” value came out at 47.9% and the “% Inhibition n=2 48h” value stood at 71.9%.

Take `O=C1CCCN1CC1CCCCN1c1cc(Cl)c(C(F)(F)F)cc1[N+](=O)[O-]` (centres unmarked) [SN00780038]: the “% Inhibition n=1 48h” value was 9.6%.

On to `CN1C(=O)CC(C(=O)NNC(=O)COc2ccccc2-c2ccccc2)C1c1cccnc1` (centres unmarked) [SN00780071], for which the “% Inhibition n=1 48h” value is recorded as 9.4%.

For `O=C(c1ccc[nH]c1=S)N1CCCC(CN2CCN(c3ccccn3)CC2)C1` (centres unmarked) [SN00780166], the “% Inhibition n=1 48h” value amounted to 0.0%.

For the compound `Cc1cc(N2C(=O)C(O)=C(C(=O)c3ccc(Cl)cc3)C2c2ccc([N+](=O)[O-])cc2)no1` (centres unmarked) [SN00780175], the “Average % Inhibition 24h” value amounted to 6.4%, the “% Inhibition n=1 24h” value is 12.8%, the “% Inhibition n=2 24h” value is 0.0% and the “Average % Inhibition 48h” value was 29.6%. Moreover, the “% Inhibition n=1 48h” value turned out to be 59.1% and the “% Inhibition n=2 48h” value was found to be 0.0%.

As to `COc1ccc(OC)c(C2C(C(=O)c3ccco3)=C(O)C(=O)N2c2cc(C)on2)c1` (centres unmarked) [SN00780182], the “% Inhibition n=1 48h” value is 21.6%.

On to `O=C(CCNS(=O)(=O)c1cccnc1)N1CCCC(c2nc3ccccc3o2)C1` (centres unmarked) [SN00780535], for which the “% Inhibition n=1 48h” value is 0.0%.

In the case of `O=C1OCCN1CCCN1CCCC(c2nc3ccccc3o2)C1` (centres unmarked) [SN00780555], the “% Inhibition n=1 48h” value is 0.0%.

For `CCOc1ccccc1OC1CCN(c2ncnc3nc[nH]c23)CC1` [SN00780570], the “% Inhibition n=1 48h” value was 31.1%.

Turning to `Cc1ccc(C)c(OC2CCN(c3ncnc4nc[nH]c34)CC2)c1` [SN00780571], the “% Inhibition n=1 48h” value was 12.5%.

For the compound `Cc1nc(CN2CCN(C(=O)c3c(C)c(C)n[nH]c3=O)CC2)cs1` [SN00780594], the “% Inhibition n=1 48h” value stood at 0.0%.

Turning to `C=CCc1ccc(OCC(O)CN2C(=O)NC(C)(c3ccccn3)C2=O)c(OC)c1` (centres unmarked) [SN00780622], the “% Inhibition n=1 48h” value came out at 48.2%.

As for `COC(=O)c1c(C(=O)OC)c(-c2ccc(NS(=O)(=O)c3ccc(C)s3)cc2)n2c1CCC2` [SN00780656], the “% Inhibition n=1 48h” value was found to be 9.3%.
